Assay results published in PubChem BioAssay (NCI).
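Where inhibition never reached the appropriate level, the endpoint shown equals the highest concentration tested. Otherwise, values were interpolated linearly from a five-concentration, 48-hour dose response in 96-well plates. The concentration for 50% growth inhibition is given as GI50. At the TGI there is no net growth.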

Legend:
Test in all cases: DTP human tumour cell line panel, 48 h
NCI-H226 lung = test system: NCI-H226 lung
SK-OV-3 ovarian = test system: SK-OV-3 ovarian
NCI-H522 lung = test system: NCI-H522 lung
U251 CNS = test system: U251 CNS
UACC-62 melanoma = test system: UACC-62 melanoma
UO-31 renal = test system: UO-31 renal
786-0 renal = test system: 786-0 renal
HCC-2998 colon = test system: HCC-2998 colon
SF-268 CNS = test system: SF-268 CNS
SN12C renal = test system: SN12C renal

## CCOc1cc(/C=C/C(=O)C(C(=O)/C=C/c2ccc(OC(=O)CNc3nnc(C)s3)c(OCC)c2)C(=O)CNc2nnc(C)s2)ccc1OC(=O)CNc1nnc(C)s1
NCI-H226 lung
  GI50: 1.92 µM
  TGI: 4.54 µM
SK-OV-3 ovarian
  GI50: 4.15 µM
  TGI: 18.2 µM
NCI-H522 lung
  GI50: 2.03 µM
  TGI: 5.71 µM
U251 CNS
  GI50: 0.976 µM
  TGI: 2.89 µM
UACC-62 melanoma
  GI50: 1.43 µM
  TGI: 2.8 µM
UO-31 renal
  GI50: 1.41 µM
  TGI: 7.81 µM
786-0 renal
  GI50: 2.16 µM
  TGI: 5.98 µM
HCC-2998 colon
  GI50: 1.69 µM
  TGI: 3.33 µM
SF-268 CNS
  GI50: 1.36 µM
  TGI: 4.13 µM
SN12C renal
  GI50: 1.86 µM
  TGI: 6.4 µM

## O=C(O)c1ccc(C(=O)O)c(C(=O)O)c1.[NH-]C1CCCCC1[NH-].[Pt+2]
NCI-H226 lung
  GI50: 2.02 µM
  TGI: 32.2 µM
SK-OV-3 ovarian
  GI50: 40.9 µM
  TGI: > 97.3 µM
NCI-H522 lung
  TGI: 24.7 µM
U251 CNS
  GI50: 8.84 µM
  TGI: 59.1 µM
UACC-62 melanoma
  GI50: 2.82 µM
  TGI: 36 µM
UO-31 renal
  GI50: 4.22 µM
  TGI: 26.5 µM
786-0 renal
  GI50: 1.99 µM
  TGI: > 74.7 µM
HCC-2998 colon
  GI50: 13.4 µM
  TGI: 48.7 µM
SF-268 CNS
  GI50: 7.54 µM
  TGI: > 87.4 µM
SN12C renal
  GI50: 3.19 µM
  TGI: 66.8 µM

## COC1=CC(=O)c2c(cc3c(c2O)-c2c(OC)cc4cc5c(c(O)c4c2OC(=O)CC(C)(O)C3)C(=O)CC(C)(O)C5)C1=O (centres undefined)
NCI-H226 lung
  TGI: 4.08 µM
SK-OV-3 ovarian
  TGI: 7.47 µM
NCI-H522 lung
  TGI: 2.67 µM
U251 CNS
  TGI: 9.92 µM
UACC-62 melanoma
  TGI: 2.57 µM
UO-31 renal
  TGI: 3.71 µM
786-0 renal
  TGI: 7.72 µM
HCC-2998 colon
  TGI: 3.21 µM
SF-268 CNS
  TGI: 9.26 µM
SN12C renal
  TGI: 3.27 µM

## CS(=N)(=O)CCC(N)P(=O)(O)O (centres undefined)
NCI-H226 lung
  TGI: > 100 µM
SK-OV-3 ovarian
  TGI: > 100 µM
NCI-H522 lung
  TGI: > 100 µM
U251 CNS
  TGI: > 100 µM
UACC-62 melanoma
  TGI: > 100 µM
UO-31 renal
  TGI: > 100 µM
786-0 renal
  TGI: > 100 µM
HCC-2998 colon
  TGI: > 100 µM
SF-268 CNS
  TGI: > 100 µM
SN12C renal
  TGI: > 100 µM

## COc1ccc2[nH]c3c4c(cc(-c5ccccc5)c3c2c1)C(=O)N(c1ccccc1)C4=O
NCI-H226 lung
  TGI: > 100 µM
SK-OV-3 ovarian
  TGI: > 93.1 µM
NCI-H522 lung
  TGI: 61 µM
U251 CNS
  TGI: 36.7 µM
UACC-62 melanoma
  TGI: > 90.6 µM
UO-31 renal
  TGI: > 72 µM
786-0 renal
  TGI: 29.5 µM
HCC-2998 colon
  TGI: > 100 µM
SF-268 CNS
  TGI: 97.1 µM
SN12C renal
  TGI: > 100 µM

## O=C1C=CC(=O)N1c1ccc(I)cc1
NCI-H226 lung
  TGI: 46.3 µM
SK-OV-3 ovarian
  TGI: 32.5 µM
NCI-H522 lung
  TGI: 47.4 µM
U251 CNS
  TGI: > 54.9 µM
UACC-62 melanoma
  TGI: 31.8 µM
UO-31 renal
  TGI: 38.5 µM
786-0 renal
  TGI: 20.7 µM
HCC-2998 colon
  TGI: 35.1 µM
SF-268 CNS
  TGI: > 77.5 µM
SN12C renal
  TGI: 48 µM

## Cc1cc(=O)oc2cc(OC(=O)Nc3ccccc3)ccc12
NCI-H226 lung
  TGI: > 100 µM
SK-OV-3 ovarian
  TGI: > 100 µM
NCI-H522 lung
  TGI: > 100 µM
U251 CNS
  TGI: > 100 µM
UACC-62 melanoma
  TGI: > 100 µM
UO-31 renal
  TGI: > 100 µM
786-0 renal
  TGI: > 100 µM
HCC-2998 colon
  TGI: > 100 µM
SF-268 CNS
  TGI: > 100 µM
SN12C renal
  TGI: > 100 µM

## CC1(C)OC2C(CO)OC(n3ccc(N)nc3=O)C2O1 (centres undefined)
NCI-H226 lung
  TGI: > 100 µM
SK-OV-3 ovarian
  TGI: > 100 µM
NCI-H522 lung
  TGI: > 100 µM
U251 CNS
  TGI: > 100 µM
UACC-62 melanoma
  TGI: > 100 µM
UO-31 renal
  TGI: > 100 µM
786-0 renal
  TGI: > 100 µM
HCC-2998 colon
  TGI: > 100 µM
SF-268 CNS
  TGI: > 100 µM
SN12C renal
  TGI: > 100 µM

## CCCCCCc1cc2cc(-c3csc(/C=C/c4ccccc4)n3)c(=O)oc2cc1O
NCI-H226 lung
  GI50: 15.2 µM
  TGI: 33.4 µM
SK-OV-3 ovarian
  GI50: 28.1 µM
  TGI: 80.3 µM
NCI-H522 lung
  GI50: 3.93 µM
  TGI: 17.9 µM
U251 CNS
  GI50: 2.91 µM
  TGI: 10.5 µM
UACC-62 melanoma
  GI50: 13.9 µM
  TGI: 28.1 µM
UO-31 renal
  GI50: 15.7 µM
  TGI: > 100 µM
786-0 renal
  GI50: 4.62 µM
  TGI: 17.1 µM
HCC-2998 colon
  GI50: 6.41 µM
  TGI: 29.3 µM
SF-268 CNS
  GI50: 11.6 µM
  TGI: 28.9 µM
SN12C renal
  GI50: 2.12 µM
  TGI: 4.43 µM

## COc1ccc(/C=C/C(=O)c2ccc(Nc3nc(Nc4ccc(F)cc4)nc(Nc4ccc(Cl)cc4)n3)cc2)cc1
NCI-H226 lung
  GI50: > 100 µM
  TGI: > 100 µM
SK-OV-3 ovarian
  GI50: > 100 µM
  TGI: > 100 µM
NCI-H522 lung
  GI50: 36.7 µM
  TGI: > 100 µM
U251 CNS
  GI50: 49 µM
  TGI: > 100 µM
UACC-62 melanoma
  GI50: > 100 µM
  TGI: > 100 µM
UO-31 renal
  GI50: 56.9 µM
  TGI: > 100 µM
786-0 renal
  GI50: > 100 µM
  TGI: > 100 µM
HCC-2998 colon
  GI50: > 100 µM
  TGI: > 100 µM
SF-268 CNS
  GI50: > 100 µM
  TGI: > 100 µM
SN12C renal
  GI50: > 100 µM
  TGI: > 100 µM
